Results as given in EP4599821A1, “CANNABIDIOL-COMPRISING LIPOSOMES” (Novozymatic BV, priority 2024, dated 2025).

Experiments:
[1] = cited from earlier work
[2] = Visual appearance of diluted reference and intravenous CBD formulations; assay type: physicochemical
Text: As a control for the CBD granules, a commercial product was used, namely Epidyolex.
When comparing the two solutions, the second approach qualified as a suitable injectable formulation for the rat study.

SMILES: C=C(C)[C@@H]1CCC(C)=C[C@H]1c1c(O)cc(CCCCC)cc1O [CBD, cannabidiol]
- Cmax (maximum concentration) ([1]; 20 mg of orally delivered CBD/THC sprayed onto a gelatin capsule): 2.4 ng/mL
- Time to peak plasma concentration ([1]; oral delivery): 1 to 4 h
- visual appearance of intravenous formulation ([2]; first approach: 50 mg/ml in 95% ethanol, diluted to 1 mg/ml in 96% saline and 2% polysorbate 80): formation of fat drops
- visual appearance of intravenous formulation ([2]; second approach: 50 mg/ml in 1:1 ethanol: polysorbate 80, diluted to 1 mg/ml in 98% saline, 10 or 20 min rest): no fat drops and no sediment were observed
